Laboratory results published in US11077167B2, “Agent for promoting skeletal muscle injury repair” (Osaka University, priority 2017, dated 2021).

Tests used:
[1] = tested on: fibroblasts; details: Patent Literature 4; cited from earlier work
[2] = tested on: muscle injury model rats (incised masseter muscles on both sides); assay: CT image analysis at postoperative week 8; format: in vivo, Jcl:SD rats
Method: (§1) Incisions were made in masseter muscles on both sides in Jcl:SD rats (10 weeks old) under anesthesia in the same manner as in Example 1. Immediately after muscle incision, 1 mL each of the SV peptide (20 ng/mL) or 1 mL each of PBS was intramuscularly administered into several sites surrounding the cut surfaces. The incision on each side was made along a straight line connecting the lateral angle of the eye and the mandibular angle, extending in depth from the fascia on the skin side to the lateral periosteum on the mandibular ramus. The cut surfaces were subjected to electrocoagulation with an electric scalpel for the arrest of bleeding (see FIG. 1). […]
Images were taken at postoperative week 8 using a micro CT for laboratory animals (Rigaku, tube voltage: 90 kV, tube current: 160 μA, voxel size: 118 μm). […] On the image at the level of the occlusal plane including the masseter muscle incision site, the muscle cross-sectional area (CSA), the mean CT value, and the % CSA (the percentage of the area having a muscle CT value in the area of interest) were measured and compared.

[3] = Patent Literature 3; cited from earlier work
[4] = tested on: Human skeletal muscle myoblasts (HSMMs); assay: Cell migratory capacity (cell-denuded area); format: cell-based; details: SV peptide 20 ng/mL
Method: (§2) Human skeletal muscle myoblasts (HSMMs) were purchased from Lonza and used. The medium used for HSMM culture was the supplier's recommended medium (Skeletal Muscle Growth Media-2 supplemented with SingleQuots Kit).
Human skeletal muscle satellite cells and human skeletal muscle myoblasts were separately cultured on 60-mm (diameter) dishes (Iwaki) to 100% confluency. From each dish, a 2-mm-wide strip of cells were removed, and the medium was replaced with a medium containing the SV peptide (20 ng/mL, SV group), the random SV (20 ng/mL, random SV group), or PBS (PBS group). Thereafter, culture was continued. Images were taken with a digital camera mounted on a phase-contrast microscope every 12 hours. The cell-denuded area was measured using the image-analysis software ImageJ (NIH, USA). The cell migration percentage was determined by calculating the percentage of reduction in the cell-denuded area relative to the value immediately after cell removal.

[5] = tested on: muscle injury model rats (incised masseter muscles on both sides); assay: Histological staining of masseter muscles at postoperative week 1, Example 1; format: in vivo, Jcl:SD rats; details: P<0.05, t-test
Method: (§3) Incisions were made in masseter muscles on both sides in Jcl:SD rats (10 weeks old). Immediately after muscle incision, 1 mL each of the SV peptide (20 ng/mL) was intramuscularly administered into several sites surrounding the cut surfaces. The incision on each side was made along a straight line connecting the lateral angle of the eye and the mandibular angle, extending in depth from the fascia on the skin side to the lateral periosteum on the mandibular ramus. The cut surfaces were subjected to electrocoagulation with an electric scalpel for the arrest of bleeding (see FIG. 1).
This experiment was performed on rats subjected to incision of masseter muscles on both sides and subsequent administration of the SV peptide into the incised left masseter muscle without administration into the incised right masseter muscle (control). Each rat was euthanized at postoperative week 1, and the masseter muscles on both sides were excised. Histological sections were prepared by the usual method and subjected to various types of staining. The number of immature muscle fibers with central nuclei, which were muscle fibers involved in muscle repair, and the number of blood vessels were counted on HE-staining specimens. The masseter muscle was divided into upper and lower halves in the coronal plane, and 2 slices each of the upper and lower halves were used for counting. Counting was performed in 5 fields of view in each slice. The area of granulation tissue formed on the cut surfaces was measured on sirius red-staining specimens (type I and type III collagens were stained) using an image-analysis software. The sections were immunostained for myogenin, a marker for myotube cells, and the number of myogenin-positive cells was counted using an image-analysis software.

[6] = tested on: muscle injury model rats (incised masseter muscles on both sides); assay: Behavioral physiological experiment (feeding behavior, body weight), Example 1; format: in vivo, Jcl:SD rats; details: 1 mL intramuscular
Method: as §3
Feeding behavior and body weight of each rat was monitored preoperatively and 1 and 2 weeks postoperatively. More specifically, each rat was housed in a transparent plastic cage of 30 cm in length×30 cm in width×30 cm in height, and the behavior was recorded on video cameras during the active time of rats (18:00 to 22:00). Food intake and mastication time were measured, and the food intake per unit of mastication time (feeding efficiency) was calculated. This experiment was performed on a muscle injury model subjected to administration of the SV peptide into the incised masseter muscles on both sides (SV group) and on a muscle injury model subjected to administration of PBS into the incised masseter muscles on both sides (PBS group).

[7] = tested on: muscle injury model rats (incised masseter muscles on both sides); assay: Histological staining of masseter muscles at postoperative week 8, Example 2; format: in vivo, Jcl:SD rats; details: sirius red staining
Method: as §1
Each rat was euthanized at postoperative week 8, and the masseter muscles on both sides were excised. […] Histological characteristics of regenerated muscle fibers at the muscle injury site were assessed on the HE-stained sections. The amount of muscle fibers formed and the diameter of the muscle fibers in the tissue were measured on the sirius red-staining sections.

[8] = tested on: Human skeletal muscle myoblasts (HSMMs); assay: Myogenin expression by immunofluorescence staining; format: cell-based; details: SV peptide 20 ng/mL, HS group = 2% horse serum positive control
Text: as §2
Myogenin is known to be expressed when myoblasts differentiate into myotube cells. In this experiment, myogenin expression was used as an index to examine the effect of the SV peptide on the differentiation of human skeletal muscle myoblasts.
Human skeletal muscle myoblasts were cultured in a medium containing the SV peptide (20 ng/mL, SV group), the random SV (20 ng/mL, random SV group), or PBS (PBS group) for 48 or 72 hours. For a positive control, human skeletal muscle myoblasts were cultured in an F-12/DMEM medium containing 2% horse serum, which is known to facilitate myoblast differentiation into myotube cells (Moira A. Lawson et al.: Cells Tissues Organs 2000; 167: 130-137) (HS group). After 48- or 72-hour culture, the cells were immunostained with an anti-human myogenin antibody by the usual method and observed with a fluorescence microscope.

Substance: SVVYGLR [SV peptide]
- type III collagen production in fibroblasts [1]: promotes type III collagen production in fibroblasts
- muscle cross-sectional area (CSA) ([2]; CT image at occlusal plane level, SV group vs PBS group): significantly greater CSA in the area including the muscle incision site than that in the corresponding area in the PBS group
- % CSA (percentage of the area having a muscle CT value in the area of interest) ([2]; SV side vs control side within SV group): significantly higher % CSA on the left side with SV administration (SV side) than that on the right side without administration (control side)
- cardiac function [3]: improves cardiac function
- cell migratory capacity (cell migration percentage) ([4]; 36 and 48 hours after cell removal): significantly different from that in the PBS group or the random SV group
- cell migratory capacity (cell migration percentage) ([4]; 24 hours after cell removal and thereafter): higher than that in the PBS group or the random SV group
- number of muscle fibers with central nuclei ([5]; HE staining, SV peptide side vs control side): significantly larger on the SV peptide side than that on the control side
- number of blood vessels per field of view ([5]; HE staining, SV peptide side vs non-administration control side): significantly larger on the SV peptide side than that on the control side
- number of myogenin-positive nuclei per field of view ([5]; myogenin immunostaining, SV peptide side vs control side): significantly larger on the SV peptide side than that on the control side
- area of granulation tissue formed on cut surfaces ([5]; sirius red staining, SV peptide side vs control side): significantly smaller on the SV peptide side than that on the control side
- feeding efficiency (food intake per unit of mastication time) ([6]; postoperative week 1, relative to preoperative value = 1, SV peptide 20 ng/mL): reduced
- feeding efficiency (food intake per unit of mastication time) ([6]; postoperative week 2, relative to preoperative value = 1, SV peptide 20 ng/mL): recovered to almost the preoperative level
- amount of scar formation (area of scar tissue formed on the cut surfaces) ([7]; SV peptide administration side vs PBS administration side): remarkably reduced from that on the PBS administration side in the PBS group
- diameter of the muscle fibers ([7]; SV side vs control side in SV group): significantly larger than that on the control side in the same group
- percentage of myogenin-positive cells ([8]; 48-hour culture): significantly higher than that in the PBS group or the random SV group, but significantly lower than that in the HS group
- percentage of myogenin-positive cells ([8]; 72-hour culture): significantly higher than that in the PBS group or the random SV group, and comparable to that in the HS group
